Laboratory results published in patent US12630600B2 (MEDIMMUNE LIMITED, priority 2022, dated 2026).
Starred links: 1 amine or outer side, 2 acyl side, 3 side chain; linkers in the order of their positions; H or OH if unused. Non-standard residues stand in square brackets, D forms with d. Residues, ends and D or L forms follow the SMILES beside them. Groups on a side chain read outwards from the residue. No end group written: not given here. *: point of attachment. C20 diacid = O=C(O)CCCCCCCCCCCCCCCCCCC(=O)*; C18 diacid = O=C(O)CCCCCCCCCCCCCCCCC(=O)*; γGlu = O=C(O)[C@H](CCC(=O)[*:2])N[*:1]; Stearoyl = CCCCCCCCCCCCCCCCCC(=O)*; αMeF = C[C@](N)(Cc1ccccc1)C(=O)O; PEG2 = NCCOCCOCCC(=O)O; AEEA = NCCOCCOCC(=O)O; Aib = CC(C)(N)C(=O)O

Experiments:
[1] = test system: GLP-1R knockout mice; experiment: Glucose change in GLP-1R knockout mice; assay type: in vivo, mouse; conditions: GLP-1R KO mice, s.c., no somatostatin pretreatment
Description: (§1) They acclimated for a minimum of ˜1-2 weeks, and mice were sorted into groups (n=4-8/group) based on body weight. On day of study, mice were fasted briefly for 2 hrs prior to study start. In some studies, mice were pre-treated with octreotide (BaChem, 10 mg/kg) at 30 minutes prior to peptide injection. Glucose was measured via glucometer at various timepoints including −30 min (prior to octreotide when used in studies), 0 min (before peptide dose), 30, 60, 120, 180, 240, and 360 minutes. Since these studies are acute in nature, mice were re-used for multiple studies (no more than 3) and always allowed at least a minimum wash-out period of 1 week.

[2] = test system: wildtype (WT) mice; experiment: Glucose change in wildtype mice; assay type: in vivo, mouse; conditions: s.c., no somatostatin pretreatment
Description: as §1, with “[…] and wildtype (WT) mice at 8-14 weeks of age were singly housed on standard chow diet (Envigo, 2918) and automatic water. They” for “They”

[3] = molecular target: T1, neprilysin (Homo sapiens, UniProt P08473); experiment: Proteolytic resistance to neprilysin; assay type: in vitro ADME; conditions: pH 8.3
T1 construct: purchased R&D Systems 1182-ZNC-010
Description: 10.0 μg (˜10 units) recombinant Neprilysin (R&D Systems: 1182-ZNC-010) was reconstituted to 100 μL (100 μg/mL, ˜100 units/mL) in assay buffer (50 mM Tris, 50 mM NaCl, 50 mM NaHCO3, adjusted to pH 8.3) to give the enzyme stock solution. Peptide stock solutions were prepared to a concentration of ˜250 μM (˜1.0 mg/mL of 4 kDa peptide) in assay buffer. 100 μL (10 μg, ˜10 units) of neprilysin stock solution was added to 100 μL of peptide stock solution (1.0 mg/mL, ˜100 μg of peptide) and the mixture was co-incubated in a temperature regulated incubator at 37° C. for the duration of the experiment. 25 μL aliquots (˜12.5 μg initial peptide) of the peptide-enzyme mixture were periodically withdrawn (t=0, 30 mins, 1 h, 2 h, 4 h and 24 h) and quenched immediately by addition to an equal volume ([…]) of 10% TFA (v/v) in 1:1 water/acetonitrile to arrest proteolytic activity. The quenched aliquot centrifuged at 7800 rpm, and 30 μL of the supernatant was analyzed by analytical RP-HPLC as follows: Analytical RP-HPLC method: Agilent Polaris C8-A column (4.6×100 mm, 3 micron) eluted with a linear binary gradient of 10-90% MeCN (0.1% TFA v/v) in water (0.1% TFA v/v) over either 10 or 15 mins at 1.5 mL min^−1 at 40° C. with detection by UV absorption at 210 nm. Manual integration (AUC) allowed estimation of remaining intact peptide over the time course of the experiment.

[4] = molecular target: T2, human GLP-1 receptor (hGLP-1R) (Homo sapiens, UniProt P43220); experiment: cAMP production (HTRF) in CHO cells expressing human GLP-1 receptor; assay type: cell-based; conditions: Table 8; % GLP-1R activity relative to GLP-1 / % GlucR activity relative to glucagon
T2 construct: expressed in transfected cells; host or cells: CHO

[5] = test system: Male C57Bl/6 mice; experiment: Mouse acute food intake study; assay type: in vivo; conditions: s.c., dose 10 nmol/kg, food intake at 24 h vs vehicle
Description: Male C57Bl/6 mice obtained from Jackson Laboratories or Charles River at 8-9 weeks of age and were housed one per cage in BioDaq (Research Diets) cages. Mice were placed on Alpha Dri bedding, standard chow diet (Envigo, 2018) and given water pouches. Mice were allowed to acclimate for 1-2 weeks. Body weight was measured to ensure appropriate acclimation. After acclimation, mice were sham dosed a minimum of 2 times prior to initiation of food intake study. On study day, mice were placed in clean cage bottoms, weighed, and fasted for 6-8 hours. Mice were sorted into groups based on average 24-hour food intake data and body weight. 1-2 hours prior to lights out, mice were dosed subcutaneously with one vehicle or test peptide dissolved in an appropriate vehicle at 5 mL/kg. Mice were left undisturbed and allowed access to food and water for 48 hours. Automated food intake was monitored in the BioDaq system was monitored during this time. Discrete food intake data was exported into MS Excel from which cumulative food intake data was generated and analyzed.

[6] = molecular target: human glucagon receptor (human, UniProt P47871); experiment: cell-based or functional assay

T2 sequence (P43220 24-463): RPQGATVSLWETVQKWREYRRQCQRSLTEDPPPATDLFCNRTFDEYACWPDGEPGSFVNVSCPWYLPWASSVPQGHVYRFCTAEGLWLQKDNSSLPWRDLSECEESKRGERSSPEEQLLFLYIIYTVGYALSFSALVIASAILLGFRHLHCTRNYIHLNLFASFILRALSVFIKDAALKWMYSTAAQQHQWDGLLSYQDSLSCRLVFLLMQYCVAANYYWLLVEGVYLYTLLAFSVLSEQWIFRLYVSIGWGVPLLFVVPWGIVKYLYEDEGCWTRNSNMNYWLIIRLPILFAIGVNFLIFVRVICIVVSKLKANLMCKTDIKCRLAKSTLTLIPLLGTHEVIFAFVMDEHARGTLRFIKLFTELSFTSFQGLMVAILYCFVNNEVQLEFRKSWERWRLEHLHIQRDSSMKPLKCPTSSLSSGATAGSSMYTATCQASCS
T1 sequence (P08473 whole entry): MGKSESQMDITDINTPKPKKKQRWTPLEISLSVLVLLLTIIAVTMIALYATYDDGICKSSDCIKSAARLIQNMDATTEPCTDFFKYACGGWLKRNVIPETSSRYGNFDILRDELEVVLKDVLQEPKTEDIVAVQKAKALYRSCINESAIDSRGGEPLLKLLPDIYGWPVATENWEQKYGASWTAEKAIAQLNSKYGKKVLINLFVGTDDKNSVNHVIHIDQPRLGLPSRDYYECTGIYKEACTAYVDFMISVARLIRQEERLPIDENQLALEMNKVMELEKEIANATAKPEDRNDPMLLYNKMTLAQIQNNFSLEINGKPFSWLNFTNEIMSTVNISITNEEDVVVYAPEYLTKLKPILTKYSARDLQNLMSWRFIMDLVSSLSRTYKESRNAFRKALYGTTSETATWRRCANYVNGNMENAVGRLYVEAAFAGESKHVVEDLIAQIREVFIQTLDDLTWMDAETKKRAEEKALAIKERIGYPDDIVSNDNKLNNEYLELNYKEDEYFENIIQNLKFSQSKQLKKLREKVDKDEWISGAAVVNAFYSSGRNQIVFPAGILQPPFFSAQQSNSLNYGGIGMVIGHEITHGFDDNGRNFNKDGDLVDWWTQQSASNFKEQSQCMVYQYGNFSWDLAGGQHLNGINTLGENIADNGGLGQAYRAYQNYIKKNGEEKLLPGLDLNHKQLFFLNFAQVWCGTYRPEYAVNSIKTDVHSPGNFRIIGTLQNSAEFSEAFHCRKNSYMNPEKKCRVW

Molecule: CC[C@H](C)[C@H](NC(=O)[C@H](Cc1c[nH]c2ccccc12)NC(=O)[C@H](CCC(N)=O)NC(=O)[C@@H](NC(=O)[C@H](Cc1ccccc1)NC(=O)[C@H](CC(=O)O)NC(=O)[C@H](CCCCNC(=O)COCCOCCNC(=O)COCCOCCNC(=O)CC[C@H](NC(=O)CC[C@H](NC(=O)CCCCCCCCCCCCCCCCCCC(=O)O)C(=O)O)C(=O)O)NC(=O)[C@H](C)NC(=O)[C@H](C)NC(=O)[C@H](CCCNC(=N)N)NC(=O)[C@H](CO)NC(=O)[C@H](CC(=O)O)NC(=O)[C@H](CC(C)C)NC(=O)[C@H](Cc1ccc(O)cc1)NC(=O)[C@H](CCCCN)NC(=O)[C@H](CO)NC(=O)[C@@H](NC(=O)[C@H](CC(=O)O)NC(=O)[C@H](CO)NC(=O)[C@@H](NC(=O)[C@](C)(Cc1ccccc1)NC(=O)[C@H](CO)NC(=O)CNC(=O)[C@H](Cc1c[nH]cn1)NC(=O)C(C)(C)NC(=O)[C@@H](N)Cc1c[nH]cn1)[C@@H](C)O)C(C)C)C(C)C)C(=O)N[C@@H](C)C(=O)N[C@@H](CC(N)=O)C(=O)N[C@H](C(N)=O)[C@@H](C)O [Peptide 289] (H-H[Aib]HGS[αMeF]TSDVSKYLDSRAAK([AEEA-AEEA-γGlu-γGlu-C20 diacid])DFVQWIANT-NH2; N-terminus assumed)
- GLP-1R KO % glucose change 120 min ([1]; 10 nmol/kg): 8.9%
- GLP-1R KO % glucose change 120 min ([1]; 30 nmol/kg): 7.7%
- WT % glucose change 120 min ([2]; 10 nmol/kg): −8.5%

Molecule: CCCCCCCCCCCCCCCCCC(=O)N[C@@H](CCC(=O)N[C@@H](CCC(=O)NCCOCCOCCC(=O)NCCOCCOCCC(=O)NCCCC[C@H](NC(=O)[C@H](CO)NC(=O)[C@H](CC(=O)O)NC(=O)[C@H](CC(C)C)NC(=O)[C@](C)(Cc1ccccc1)NC(=O)[C@H](CCCCN)NC(=O)[C@H](CO)NC(=O)[C@@H](NC(=O)[C@H](CC(=O)O)NC(=O)[C@H](CO)NC(=O)[C@@H](NC(=O)[C@](C)(Cc1ccccc1)NC(=O)[C@H](CO)NC(=O)CNC(=O)[C@H](CCC(N)=O)NC(=O)[C@H](CO)NC(=O)[C@@H](N)Cc1c[nH]cn1)[C@@H](C)O)C(C)C)C(=O)N[C@@H](C)C(=O)N[C@@H](C)C(=O)N[C@@H](CCC(N)=O)C(=O)N[C@@H](CC(=O)O)C(=O)N[C@@](C)(Cc1ccccc1)C(=O)N[C@H](C(=O)N[C@@H](CCC(N)=O)C(=O)NC(C)(C)C(=O)N[C@@H](CC(C)C)C(=O)N[C@@H](CCC(=O)O)C(=O)N[C@@H](C)C(=O)NCC(=O)NCC(N)=O)C(C)C)C(=O)O)C(=O)O [Peptide 78] (H-HSQGS[αMeF]TSDVSK[αMeF]LDSK([PEG2-PEG2-γGlu-γGlu-Stearoyl])AAQD[αMeF]VQ[Aib]LEAGG-NH2; N-terminus assumed)
- % intact peptide over time, Neprilysin [3]: 100%
- WT % glucose change 120 min ([2]; 3 nmol/kg): −42.0%

Molecule: CC[C@H](C)[C@H](NC(=O)C(C)(C)NC(=O)[C@H](CCCCNC(=O)COCCOCCNC(=O)COCCOCCNC(=O)CC[C@H](NC(=O)CC[C@H](NC(=O)CCCCCCCCCCCCCCCCCCC(=O)O)C(=O)O)C(=O)O)NC(=O)[C@@H](NC(=O)[C@](C)(Cc1ccccc1)NC(=O)[C@H](CC(=O)O)NC(=O)[C@H](CCC(N)=O)NC(=O)[C@H](C)NC(=O)[C@H](C)NC(=O)[C@H](CCCNC(=N)N)NC(=O)[C@H](CO)NC(=O)[C@H](CC(=O)O)NC(=O)[C@H](CC(C)C)NC(=O)[C@](C)(Cc1ccccc1)NC(=O)[C@H](CCCCN)NC(=O)[C@H](CO)NC(=O)[C@@H](NC(=O)[C@H](CC(=O)O)NC(=O)[C@H](CO)NC(=O)[C@@H](NC(=O)[C@](C)(Cc1ccccc1)NC(=O)[C@H](CO)NC(=O)CNC(=O)[C@H](Cc1c[nH]cn1)NC(=O)C(C)(C)NC(=O)[C@@H](N)Cc1c[nH]cn1)[C@@H](C)O)C(C)C)C(C)C)C(=O)N[C@@H](C)C(=O)N[C@@H](CC(N)=O)C(=O)N[C@H](C(N)=O)[C@@H](C)O [Peptide 375] (H-H[Aib]HGS[αMeF]TSDVSK[αMeF]LDSRAAQD[αMeF]VK([AEEA-AEEA-γGlu-γGlu-C20 diacid])[Aib]IANT-NH2)
- % Relative Potency Ratio [4]: 1.4
- 24 hr % Vehicle Food Intake [5]: 66.0%

Molecule: CC(C)C[C@H](NC(=O)[C@H](Cc1c[nH]c2ccccc12)NC(=O)[C@H](CCC(N)=O)NC(=O)[C@@H](NC(=O)[C@H](Cc1ccccc1)NC(=O)[C@H](CC(=O)O)NC(=O)[C@H](CCCNC(=N)N)NC(=O)[C@H](C)NC(=O)[C@H](CCCNC(=N)N)NC(=O)[C@H](CCCCNC(=O)COCCOCCNC(=O)COCCOCCNC(=O)CC[C@H](NC(=O)CCCCCCCCCCCCCCCCC(=O)O)C(=O)O)NC(=O)[C@@H](NC(=O)[C@H](CC(=O)O)NC(=O)[C@H](CC(C)C)NC(=O)[C@](C)(Cc1ccccc1)NC(=O)[C@H](CCCCN)NC(=O)[C@H](CO)NC(=O)[C@@H](NC(=O)[C@H](CC(=O)O)NC(=O)[C@H](CO)NC(=O)[C@@H](NC(=O)[C@H](Cc1ccccc1)NC(=O)[C@@H](NC(=O)CNC(=O)[C@H](CCC(N)=O)NC(=O)C(C)(C)NC(=O)[C@@H](N)Cc1c[nH]cn1)[C@@H](C)O)[C@@H](C)O)C(C)C)[C@@H](C)O)C(C)C)C(=O)N[C@@H](CC(C)C)C(=O)N[C@@H](CCC(=O)O)C(=O)NC(C)(C)C(=O)NCC(=O)O [Peptide 188, H-Aib-Q-G-T-F-T-S-D-V-S-K-αMePhe-L-D-T-K-R-A-R-D-F-V-Q-W-L-L-E-Aib-G-acid]
- GLP-1R KO % glucose change −60 min ([1]; 10 nmol/kg): 64%

Molecule: H[Aib]HGS[αMeF]TSDVSK[αMeF]LDSRAAQDFVK([AEEA-AEEA-γGlu-C20 diacid])WIANT-NH2 (not fully specified) [Peptide 367]
- hGluc-R EC50 (pM) [6]: 72.4 pM

B1: Peptide 362 (peptide)
peptide: H[Aib]HGS[αMeF]TSDVSK[αMeF]LDSRAAQDFVK([AEEA-AEEA-γGlu-γGlu-C18 diacid])WIANT-NH2
modifications: N-terminus assumed
SMILES: CC[C@H](C)[C@H](NC(=O)[C@H](Cc1c[nH]c2ccccc12)NC(=O)[C@H](CCCCNC(=O)COCCOCCNC(=O)COCCOCCNC(=O)CC[C@H](NC(=O)CC[C@H](NC(=O)CCCCCCCCCCCCCCCCC(=O)O)C(=O)O)C(=O)O)NC(=O)[C@@H](NC(=O)[C@H](Cc1ccccc1)NC(=O)[C@H](CC(=O)O)NC(=O)[C@H](CCC(N)=O)NC(=O)[C@H](C)NC(=O)[C@H](C)NC(=O)[C@H](CCCNC(=N)N)NC(=O)[C@H](CO)NC(=O)[C@H](CC(=O)O)NC(=O)[C@H](CC(C)C)NC(=O)[C@](C)(Cc1ccccc1)NC(=O)[C@H](CCCCN)NC(=O)[C@H](CO)NC(=O)[C@@H](NC(=O)[C@H](CC(=O)O)NC(=O)[C@H](CO)NC(=O)[C@@H](NC(=O)[C@](C)(Cc1ccccc1)NC(=O)[C@H](CO)NC(=O)CNC(=O)[C@H](Cc1c[nH]cn1)NC(=O)C(C)(C)NC(=O)[C@@H](N)Cc1c[nH]cn1)[C@@H](C)O)C(C)C)C(C)C)C(=O)N[C@@H](C)C(=O)N[C@@H](CC(N)=O)C(=O)N[C@H](C(N)=O)[C@@H](C)O
- hGluc-R EC50 (pM) [6]: 42.8 pM
